This is an account of results in patent publication US20060147456A1, “Induction of apoptosis in toll-like receptor expressing tumor cells” (priority 2004, published 2006).

The test system of one experiment is Cama-1 cells. Nature of the experiment: Apoptosis by annexin V staining and flow cytometry. The format is cell-based, human. As for the experimental part:
Cell recovery after treatment with TLR ligands was measured by crystal violet staining (Sigma-Aldrich). Cells were plated at 10^4 cells/well in 96 well plates. After 72 hours of culture either with or without TLR ligand, the cells were washed with PBS, fixed in 6% formaldehyde (Sigma-Aldrich) for 20 minutes, washed twice, and then stained with 0.1% crystal violet for 10 minutes. After washes and incubation in 1% SDS for 1 hour, the absorbance was read at 605 nm on a Vmax plate reader (Molecular Devices, Sunnyvale, Calif.). Annexin V staining was performed with an annexin-FITC apoptosis detection kit (BD Pharmingen, San Diego, Calif.) according to the manufacturer's instructions. Sub-diploid cells were detected by staining with 3 μg/mL propidium iodide (PI) (Molecular probes, Eugene, Oreg.), after overnight permeabilization in 70% ethanol. Fluorescence was analyzed by flow cytometry on a FACScalibur (Becton Dickinson, Mountain View, Calif.) equipped with a doublet-discrimination module and using Celiquest Pro software (Becton Dickinson).
Cama-1 cells were plated in 6 well plates at 3×10^5 cells per well. After overnight adherence, siRNA transfections were performed for 5 hours in OptiMEM medium (Life technologies) containing 3 μg/mL lipofectamine 2000 (Invivogen) and 100 nM siRNA. Cells were then washed and cultured for 72 hours in complete medium before treatment with Poly IC and apoptosis analysis. siRNA duplexes specific for TLR3, PKR, IRAK-4, TRAF6 and p65 were purchased from Dharmacon (Lafayette, Colo.) as SMART-Pools. TRIF siRNA was purchased from the same supplier as single oligoduplexes (5′-GCUCUUGUAUCUGMGCAC-3′) (SEQ ID NO: 23). TLR3 and TRIF expression was assessed by PCR (35 cycles: 1 min 94° C., 1 min 55° C., 2 min 72° C.) with Taq PCR ReadyMix (Sigma-Aldrich) using following primers: […]
To further investigate the effect of Poly IC treatment on breast tumor cell lines, cell death was analyzed in Cama-1 cells by annexin V staining. Cells were cultured for 24 hours either with or without 5 μg/ml of Poly IC. Apoptosis was measured by annexin V staining and flow cytometry.
We also tried to determine the kinetics of Poly IC induced apoptosis. Cama-1 cells were cultured either with or without 5 μg/ml or 50 ng/ml of Poly IC. The percentage of apoptotic (annexin positive) cells in the culture were measured during the following 30 hours. […] Specifically, Poly IC triggered apoptosis in Cama-1 cells beginning 9 hours after Poly IC addition and reaching up to 80% apoptotic cells after 30 hours of treatment.
Poly AU was analyzed for its effects on apoptosis. Cama-1 cells were cultured for 48 hours either with PBS or with increasing concentrations of Poly AU ranging from 5 ng/ml to 50 μg/ml. Apoptosis was analyzed by measuring the percentage of annexin V positive cells.
In order to determine the pathway of Poly IC induced Cama-1 cell toxicity, RNA interference was used to efficiently downregulate expression of TRIF and PKR. Cama-1 cells were plated in 6 well plates at 3×10^5 cells per well. After overnight adherence, siRNA transfections were performed for 5 hours in OptiMEM medium (Life technologies) containing 3 μg/mL lipofectamine 2000 (Invivogen) and 100 nM siRNA. Cells were transfected with either MOCK (water), control scrambled duplex (scr) siRNA, TRIF siRNA or PKR siRNA.
72 hours after siRNA transfection, Cama-1 cells were cultured for another 24 hours either with or without 5 μg/ml Poly IC. Apoptosis was measured by annexin V staining and expressed as a percentage of apoptotic cells in culture. On average, 10% of control cells (MOCK and scr) that were untreated underwent apoptosis. In contrast, about 75% of control cells (MOCK and scr) that were treated with Poly IC underwent apoptosis.
To further investigate TLR3 mediated cytotoxicity, the involvement of the signaling molecules IRAK4 and TRAF6, both downstream mediators of TLR signaling, were assessed. Cama-1 cells were plated in 6 well plates at 3×10^5 cells per well. […]
In general terms: In flow cytometry, cells or beads pass a laser one at a time.

Experiment [1] concerns human primary breast tumor cells. Nature of the experiment: Apoptosis by PI staining (subG0/G1 cells). Conditions: 50 μg/ml Poly IC, 48 h; PBS 19.5%. The format is cell-based. From the text:
Human primary breast tumor sample was obtained from the Centre Léon Bérard (Lyon, France) in agreement with the Hospital bioethical protocols. A single cell suspension was obtained after digestion with Collagenase A (Sigma-Aldrich) and washes and enrichment in Human Epithelial Antigen (HEA) positive cells using HEA-microbeads (Mylteni Biotech, Bergisch Gladbach, Germany) according to manufacturer's instructions. The final single cell suspension contained more than 80% HEA positive cells and less than 2% CD4^+ hematopoietic contaminants.
Cell recovery after treatment with TLR ligands was measured by crystal violet staining (Sigma-Aldrich). Cells were plated at 10^4 cells/well in 96 well plates. […] Sub-diploid cells were detected by staining with 3 μg/mL propidium iodide (PI) (Molecular probes, Eugene, Oreg.), after overnight permeabilization in 70% ethanol. Fluorescence was analyzed by flow cytometry on a FACScalibur (Becton Dickinson, Mountain View, Calif.) equipped with a doublet-discrimination module and using Celiquest Pro software (Becton Dickinson).
We then tried to determine the effect that Poly IC has on human primary breast tumor cells. […] Apoptosis was measured by PI staining. […]

Take “polyinosinic-polycytidylic acid [Poly IC]”: in the experiment on Cama-1 cells (Cama-1, 5 μg/ml or 50 ng/ml Poly IC, untreated 15%), the “apoptotic (annexin positive) cells after 30 hours” value is listed as 80%. Moreover, the “percentage of apoptotic cells” value in the experiment with Cama-1 cells (Cama-1, 25 μM z-VAD-fmk pre-incubation 1 h, 24 h, 5 μg/ml Poly IC or 25 ng/ml TNF-α) was 30%; in the experiment with Cama-1 cells (Cama-1, DMSO pre-incubation 1 h, 24 h, 5 μg/ml Poly IC or 25 ng/ml TNF-α), 70%; in the experiment with Cama-1 cells (Cama-1, absence of antibody (Example 11), 24 h, 5 μg/ml Poly IC or 1000 U/ml each IFN-α/IFN-β) it was 70%; in the experiment with Cama-1 cells (Cama-1, absence of antibody (Example 12), 5 μg/ml Poly IC or 25 ng/ml TNF-α) it was 70%; with Cama-1 cells (Cama-1, pre-incubated 1 h with 20 μg/ml anti-IFN R1 mAb, 24 h, 5 μg/ml Poly IC or 1000 U/ml IFN-α/IFN-β), 30%; in the experiment on Cama-1 cells (Cama-1, pre-incubated 1 h with 20 μg/ml isotype control mouse IgG1, 24 h, 5 μg/ml Poly IC or 1000 U/ml IFN-α/IFN-β), 70%. In addition, the “percentage of apoptotic cells” value was 40% in the experiment with Cama-1 cells (Cama-1, pre-incubated with 10 μg/ml CHX, 5 μg/ml Poly IC or 25 ng/ml TNF-α, untreated 15%); 65% in the experiment on Cama-1 cells (Cama-1, pre-incubated with 20 μg/ml neutralizing anti TNF-α mAb, 5 μg/ml Poly IC or 25 ng/ml TNF-α); “about 75%” in the experiment with Cama-1 cells (Cama-1 control cells (MOCK and scr), 24 h with 5 μg/ml Poly IC, untreated 10%); “about 75%” in the experiment with Cama-1 cells (Cama-1 control cells (scr), Example 10, 24 h with 5 μg/ml Poly IC, untreated 10%); 20% with Cama-1 cells (Cama-1 scr group, 24 h, Poly IC 50 ng/ml); 70% with Cama-1 cells (Cama-1 scr group, 24 h, Poly IC 5 μg/ml). Moreover, the “percentage of apoptotic cells” value is recorded as 10% in the experiment on Cama-1 cells (Cama-1 siRNA p65 group, 24 h, Poly IC 50 ng/ml) and 20% in the experiment on Cama-1 cells (Cama-1 siRNA p65 group, 24 h, Poly IC 5 μg/ml). Also, the “cells stained by Annexin V” value with Cama-1 cells (Cama-1, 24 h, 5 μg/ml Poly IC) is reported as “over 70%”. For the same substance, in the experiment on Cama-1 cells (Cama-1, kinetics over 30 hours), the “beginning of apoptosis after Poly IC addition” value came out at 9 h. In addition, the “cells with low DNA content (subG0/G1 cells)” value in experiment [1] turned out to be 38.6%.
